The values that follow come from patent publication US7115724B2, “Murine genomic polynucleotide sequence encoding a G-protein coupled receptor and methods of use therefor” (priority 2001, dated 2006).

In test [1] the target is T1, human P2Y12 receptor (Homo sapiens, UniProt Q9H244). The following applies: Zhang et al., 2001, cited from earlier work; for rank order of potency, human P2T (P2Y12) receptor in adenylyl cyclase inhibition assays: reported values.
In test [2] the target is T1, human P2Y12 receptor. Further details: host or cells: NIH3T3 cells with a chimeric Gq/i3 construct (FLIPR). The following applies: cited from earlier work; for rank order of potency, human P2T (P2Y12) receptor measured in FLIPR: reported values, Zhang et al., 2001.
For test [3], the target named is T2, mouse P2T receptor (Mus musculus, UniProt Q9CPV9).
T2 construct: Oligonucleotides corresponding to the 5′ and 3′ ends of the predicted protein coding region were used to amplify a fragment; expressed in transfected cells; host or cells: Saccharomyces cerevisiae MPY578 variant expressing a Gpa1-Gαt chimera, with pMP344 (p426GPD backbone) and the FUS1-LacZ reporter pMP283
Put plainly: Yeast cell-based assay of mouse P2T receptor agonist activation (β-galactosidase reporter). Particulars: for rank order of potency of agonist stimulation of the mouse P2T receptor: yeast assay (FIG. 2). From the text:
In order to facilitate coupling of the P2T receptor to G protein, MPY578 variant cells express chimeric G alpha proteins coupled to the mating signal transduction pathway. The chimeric constructs are expressed from the GPA1 locus and are composed of Gpa1 sequences in which the 5 C-terminal amino acids have been replaced with those of all the mammalian Gα proteins. A multicopy FUS1-LacZ reporter gene plasmid, pMP283, was introduced into P2T receptor-containing cells and selected on media lacking trp and ura. The resulting yeast strains were used for further analysis.
MPY578 cells that express Gpa1-Gαt chimeric G alpha protein and containing pMP344 and pMP283 were diluted in assay medium (SCD-ura-trp, pH 6.8, 25 mM PIPES, 1 mM 3-aminotriazole) dispensed (5×10^6/ml, 200 μl/well) to the wells of 96-well microtiter dishes containing purinergic ligands. The plates were incubated with shaking (600 rpm) at 30° C. for 3 hours. Samples (25 μl) were transferred to Wallac B & W isoplates for β-galactosidase assay. An equal volume of GAL-SCREEN lysis and chemiluminescent β-galactosidase assay mixture was added. The plates were incubated for 30 min at 30° C. and light emission measured using a Wallac Victor II. Assays were conducted in quadruplicate and results were plotted using GraphPad Prizm.

Test [4] concerns the target T3, mouse P2Y12 (Mus musculus, UniProt Q9CPV9).
T3 construct: expressed in transfected cells; host or cells: NIH3T3 cells stably transfected with pCDNA-Gαq/i3 and pCDNA3.1-mP2Y12
In words: Agonist-induced release of intracellular calcium (FLIPR) in NIH3T3 cells expressing mouse P2Y12 and chimeric Gαq/i3. In kind it is cell-based. Particulars: for rank order of potency of agonist stimulation of the mouse P2Y12 receptor in FLIPR: NIH3T3 Gαq/i3 cells (FIG. 4). The protocol: Mammalian cell expression and measurement of intracellular calcium. NIH3T3 cells were stably transfected with pCDNA-Gαq/i3 by electroporation and cultured in the presence of 800 μg/ml neomycin. The NIH3T3 Gαq/i3 line was subsequently stably transfected with pCDNA3.1-mP2Y12 by electroporation and cultured in the presence of 800 μg/ml neomycin and 400 μg/ml hygromycin. Cells were plated without selection and grown overnight at 37° C. The cells were washed with Hank's balanced salt solution without phenol red plus 20 mM HEPES, 2.5 mM probenecid, pH 7.4 and loaded with wash solution plus 5 μM Fluo-4, 0.04% pluronic acid and 1% fetal bovine serum for 1 hour at 37° C. After removing the dye solution and washed with wash buffer, agonists were added and analyzed using the FLIPR (PE Biosystems) to measure accumulation of intracellular calcium in response to compound treatments.
In published reports, Xenopus oocytes injected with the human P2Y12 receptor cRNA and coupled to stimulation of coinjected Kir3.1/Kir3.2 inwardly rectifying K+ currents, the EC50 was 300 nM (Hollopeter, 2001). […] The rank orders of potency of agonist stimulation of the mouse P2Y12 receptor in FLIPR (2MeSADP>ADP=ADPβS>ATPγS) agree well with reported values for the human P2Y12 receptor measured in FLIPR (2MeSADP=2MeSATP>ADP=ADPβS>2CIATP>ATPγS) and in adenylyl cyclase inhibition assays (2MeSATP>2MeSADP>ADP>ATPγS>ADPβS>2CIATP) (Zhang, 2001).
A general note: A change in cytosolic calcium serves as a functional read-out for many receptors and channels.

For test [5], the target named is T1, human P2Y12 receptor. The following applies: Xenopus oocytes injected with P2T (human P2Y12) receptor cRNA; Hollopeter et al., 2001; read-out: EC50, stimulation of Kir3.1/Kir3.2 inwardly rectifying K+ currents; cited from earlier work.

Read-outs that look alike come from different tables or passages of the source.

T1 sequence (Q9H244 whole entry): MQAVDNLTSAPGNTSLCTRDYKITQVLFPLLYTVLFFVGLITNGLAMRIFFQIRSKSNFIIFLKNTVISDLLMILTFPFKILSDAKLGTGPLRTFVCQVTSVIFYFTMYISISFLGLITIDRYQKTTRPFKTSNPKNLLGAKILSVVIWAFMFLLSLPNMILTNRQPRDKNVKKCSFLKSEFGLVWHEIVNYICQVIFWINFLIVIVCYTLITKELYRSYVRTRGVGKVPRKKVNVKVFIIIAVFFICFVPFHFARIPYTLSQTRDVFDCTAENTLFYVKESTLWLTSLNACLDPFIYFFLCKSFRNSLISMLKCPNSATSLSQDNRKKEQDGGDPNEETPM
T2 sequence (Q9CPV9 whole entry, the tested form may be a part): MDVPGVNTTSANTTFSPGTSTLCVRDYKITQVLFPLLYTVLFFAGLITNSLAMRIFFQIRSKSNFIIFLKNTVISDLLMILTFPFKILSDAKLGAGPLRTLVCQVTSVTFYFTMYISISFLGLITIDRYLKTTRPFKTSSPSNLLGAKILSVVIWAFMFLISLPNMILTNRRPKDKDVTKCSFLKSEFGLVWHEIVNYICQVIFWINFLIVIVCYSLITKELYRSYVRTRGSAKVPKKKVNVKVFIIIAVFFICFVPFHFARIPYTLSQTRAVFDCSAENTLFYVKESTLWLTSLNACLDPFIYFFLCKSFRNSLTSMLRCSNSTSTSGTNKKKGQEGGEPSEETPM
T3 sequence (Q9CPV9 whole entry): as the sequence (Q9CPV9 whole entry, the tested form may be a part) above

For `Nc1nc(Cl)nc2c1ncn2[C@@H]1O[C@H](COP(=O)(O)OP(=O)(O)OP(=O)(O)O)[C@@H](O)[C@H]1O` [2CIATP], in test [1], the “rank order of potency, human P2T (P2Y12) receptor in adenylyl cyclase inhibition assays” value is recorded as 2MeSATP>2MeSADP>ADP>ATPγS>ADPβS>2CIATP. Further, the “rank order of potency, human P2T (P2Y12) receptor measured in FLIPR” value (shortened to “rank order of potency, human P2T … in FLIPR”) in test [2] is listed as 2MeSADP=2MeSATP>ADP =ADPβS>2CIATP>ATPγS. Moreover, in test [3], the “rank order of potency of agonist stimulation of the mouse P2T receptor” value (from here on “rank order … of the mouse P2T receptor”) is 2MeSADP>2MeSATP>ADP=ADPβS>ATPγS>2CIATP.
Regarding `CSc1nc(N)c2ncn([C@@H]3O[C@H](COP(=O)(O)OP(=O)(O)O)[C@@H](O)[C@H]3O)c2n1` [2MeSADP], the “rank order of potency, human P2T (P2Y12) receptor in adenylyl cyclase inhibition assays” value in test [1] is 2MeSATP>2MeSADP>ADP>ATPγS>ADPβS>2CIATP. Also, the “rank order of potency, human P2T … in FLIPR” value in test [2] is recorded as 2MeSADP=2MeSATP>ADP =ADPβS>2CIATP>ATPγS. Moreover, the “rank order … of the mouse P2T receptor” value in test [3] is recorded as 2MeSADP>2MeSATP>ADP=ADPβS>ATPγS>2CIATP. Also, the “rank order of potency of agonist stimulation of the mouse P2Y12 receptor in FLIPR” value in test [4] was 2MeSADP>ADP=ADPβS>ATPγS.
For `CSc1nc(N)c2ncn([C@@H]3O[C@H](COP(=O)(O)OP(=O)(O)OP(=O)(O)O)[C@@H](O)[C@H]3O)c2n1` [2MeSATP], the “rank order of potency, human P2T (P2Y12) receptor in adenylyl cyclase inhibition assays” value in test [1] is listed as 2MeSATP>2MeSADP>ADP>ATPγS>ADPβS>2CIATP. Also, the “rank order of potency, human P2T … in FLIPR” value in test [2] is 2MeSADP=2MeSATP>ADP =ADPβS>2CIATP>ATPγS. Besides, the “rank order … of the mouse P2T receptor” value in test [3] is listed as 2MeSADP>2MeSATP>ADP=ADPβS>ATPγS>2CIATP.
Consider `Nc1ncnc2c1ncn2[C@@H]1O[C@H](COP(=O)(O)OP(=O)(O)O)[C@@H](O)[C@H]1O` [ADP], for which the EC50 was 61 nM in test [1] (read-out: EC50, ADP dependent inhibition of cAMP accumulation); 74 nM in test [2] (NIH3T3 cells, receptor with chimeric Gq construct, literature value, read-out: EC50 measured by FLIPR); 300 nM in test [5]; 256 nM in test [3] (MPY578 yeast cells, β-galactosidase reporter, read-out: EC50 for ADP stimulation of the mouse P2T assayed in yeast); 27 nM in test [4] (FLIPR, NIH3T3 Gαq/i3 cells, read-out: EC50 for ADP stimulation of the mouse P2Y12 dependent release of intracellular calcium). Besides, in test [1], the “rank order of potency, human P2T (P2Y12) receptor in adenylyl cyclase inhibition assays” value is listed as 2MeSATP>2MeSADP>ADP>ATPγS>ADPβS>2CIATP. Further, the “rank order of potency, human P2T … in FLIPR” value in test [2] was 2MeSADP=2MeSATP>ADP =ADPβS>2CIATP>ATPγS. Besides, the “rank order … of the mouse P2T receptor” value in test [3] is reported as 2MeSADP>2MeSATP>ADP=ADPβS>ATPγS>2CIATP. The “rank order of potency of agonist stimulation of the mouse P2Y12 receptor in FLIPR” value in test [4] is given as 2MeSADP>ADP=ADPβS>ATPγS.
On to `Nc1ncnc2c1ncn2[C@@H]1O[C@H](COP(=O)(O)OP(O)(O)=S)[C@@H](O)[C@H]1O` [ADPβS], for which the “rank order of potency, human P2T (P2Y12) receptor in adenylyl cyclase inhibition assays” value in test [1] is listed as 2MeSATP>2MeSADP>ADP>ATPγS>ADPβS>2CIATP. In addition, the “rank order of potency, human P2T … in FLIPR” value in test [2] is reported as 2MeSADP=2MeSATP>ADP =ADPβS>2CIATP>ATPγS. Moreover, the “rank order … of the mouse P2T receptor” value in test [3] is on record as 2MeSADP>2MeSATP>ADP=ADPβS>ATPγS>2CIATP. Further, the “rank order of potency of agonist stimulation of the mouse P2Y12 receptor in FLIPR” value in test [4] was found to be 2MeSADP>ADP=ADPβS>ATPγS.
Consider `Nc1ncnc2c1ncn2[C@@H]1O[C@H](COP(=O)(O)OP(=O)(O)OP(O)(O)=S)[C@@H](O)[C@H]1O` [ATPγS], for which the “rank order of potency, human P2T (P2Y12) receptor in adenylyl cyclase inhibition assays” value in test [1] is 2MeSATP>2MeSADP>ADP>ATPγS>ADPβS>2CIATP. Moreover, in test [2], the “rank order of potency, human P2T … in FLIPR” value is recorded as 2MeSADP=2MeSATP>ADP =ADPβS>2CIATP>ATPγS. The “rank order … of the mouse P2T receptor” value in test [3] is 2MeSADP>2MeSATP>ADP=ADPβS>ATPγS>2CIATP. Besides, in test [4], the “rank order of potency of agonist stimulation of the mouse P2Y12 receptor in FLIPR” value is recorded as 2MeSADP>ADP=ADPβS>ATPγS.
